Measured values published in US20210189367A1, “Inducible Cell Receptors for Cell-Based Therapeutics” (Senti Biosciences, Inc., priority 2017, published 2021).

Experiments:
Format in all cases: cell-based, human
[1] = tested on: Jurkat cells transduced with an anti-Her2 CAR fused to a self-excising degron; assay: T cell activation (CD69) of anti-Her2 CAR-degron Jurkat cells on recombinant Her2; settings: 1 μM ASV 2 days, then recombinant Her2-coated plates overnight, even at high Her2 (10 μg/mL)
Procedure: The function of an anti-Her2 CAR fused to a self-excising degron in T cells was tested in vitro. Jurkat cells (an immortalized human T cell line) were transduced with an anti-Her2 CAR fused to a self-excising degron (SEQ ID NO: 4). These cells were incubated in the presence (1 μM ASV) or absence of the ASV protease inhibitor for 2 days, then subsequently placed on tissue culture plates coated with recombinant Her2 (low=2.5 μg/mL; high=10 μg/mL). Following overnight incubation, the ant-Her2 CAR T cells were stained with an anti-CD69 fluorescent antibody, and the mean fluorescence of each cell population was measured using flow cytometry. CD69 was used as a T-cell activation marker.

[2] = tested on: CAR; assay: Switchable expression of CAR by application of ASV (YFP, flow cytometry), CAR T cells
From the text: The first fusion protein (left) comprises an extracellular protein binding domain fused to a myc tag and three intracellular signaling domains fused to YFP. The second fusion protein (middle; “CAR-SMASh”) further comprises a Hepatitis C (HCV) NS4A-NS4B protease cleavage site, a HCV NS3 protease domain, and a degron derived from the HCV NS4A protein. The CAR-SMASh, therefore, expresses CAR, but induces degradation of CAR in the presence of ASV. The third fusion protein (right; “CAR-SMASh[GGS]”) is a CAR-SMASh mutant lacking the NS4 degron.
(§1) Human total pan T cells were isolated from PBMC donors by magnetic-assisted cell sorting using StemCell Technologies Total Pan T Cell Isolation Kit and stimulated with anti-CD3/28 Dynabeads at a 1:3 ratio (T cells:Dynabeads), 10^6 T cells with 3×10^Dynabeads, in CTS OpTmizer media with CTS Serum Replacement and recombinant human IL-2 [100 U/ml]. One day later T cells were then transduced with lentivirus carrying a CAR comprising anti-HER2 or anti-CD19 scFv. Specifically, lentivirus encoding CAR, CAR-SMASh and CAR-SMASh[GGS] comprising anti-HER2 or anti-CD19 scFv was transduced. CAR-T cells were then split into a larger well with fresh media added. On Day 5 CAR-T cells were exposed to ASV [2 μM] and then analyzed by flow cytometry to measure YFP expression at various time points, including on day 6 (FIG. 13) and on day 7 (FIG. 14).

[3] = tested on: CAR; assay: Switchable expression of CAR by removal of ASV (YFP, flow cytometry), CAR T cells; settings: T cells transduced with CAR (FIG. 16A)
From the text: as §1, with “3×10^6 Dynabeads,” for “3×10^Dynabeads,”, “for 2 days, washed 2 times, then re-cultured in media without ASV” for “[2 μM]”, “were acquired” for “analyzed”, “cytometry” for “cytometry to measure YFP expression”, “points” for “points, including on day 6 (FIG. 13)”, “YFP expression was measured.” for “on day 7 (FIG. 14).”

[4] = tested on: CAR-T cells co-cultured with target HER2+ SKOV3 tumor cells; assay: Cytokine production by CAR-T cells co-cultured with target tumor cells, Luminex multi-cytokine array; settings: CAR-SMASh T cells, ASV 2 μM, E:T 10:1
From the text: Human […] pan T cells were isolated from PBMC donors by magnetic-assisted cell sorting using StemCell Technologies Total Pan T Cell Isolation Kit and stimulated with anti-CD3/28 Dynabeads at a 1:3 ratio (T cells:Dynabeads), 10^6 T cells with 3×10^6 Dynabeads, in CTS OpTmizer media with CTS Serum Replacement and recombinant human IL-2 [100 U/ml]. 1 day later T cells were then transduced with lentivirus carrying anti-HER2 scFv CAR-SMASh designs. CAR-T cells were then split into a larger well with fresh media added. On Day 6 CAR-T cells were treated with ASV [2 μM] for 2 days. On Day 8 CAR-T cells were washed, replenished with ASV, and co-cultured with target HER2+ SKOV3 tumor cells at (10:1) effector-to-target (E:T) ratio, incubated overnight, and supernatants collected the next day. Cytokines were measured by Luminex multi-cytokine array using a Luminex MagPix (Sigma Millipore).

C=C[C@@H]1C[C@]1(NC(=O)[C@@H]1C[C@@H](Oc2ncc(OC)c3ccc(Cl)cc23)CN1C(=O)[C@@H](NC(=O)OC(C)(C)C)C(C)(C)C)C(=O)NS(=O)(=O)C1CC1 [ASV, Asunaprevir]
cells activated (CD69) [1]: less than 25% | CAR expression (percentage YFP+ and YFP MFI) ([2]; CAR T cells, ASV 2 μM, day 6 (FIG. 13)): no effect | CAR expression (percentage YFP+) over time after addition of ASV ([2]; T cells expressing CAR (FIG. 15A)): no effect | reversible effects on CAR expression (percentage YFP+) after removal of ASV [3]: not observed | IFN-gamma production ([4]; overnight (FIG. 19A)): decreased production | IL-lalpha production ([4]; overnight (FIG. 19B)): decreased production | IL-6 production ([4]; overnight (FIG. 19C)): decreased production
